{"source": "patent EP1285918A1", "about": "“C7 Ester substituted taxanes as antitumor agents” (Florida State University Research Foundation, Inc., priority 2001, dated 2003)", "key": {"HCT116": {"system": "HCT116", "assay": "In Vitro cytotoxicity measured by the cell colony formation assay", "format": "cell-based", "conditions": "Homo sapiens, HCT-116; 72 h drug incubation, colonies counted after 7 days; concentration producing 50% inhibition of colony formation; read-out: IN VITRO ID 50 (nm) HCT116"}, "[1]": {"system": "MX-1 Human Breast Carcinoma Xenograft", "assay": "In vivo evaluation of oral administration of antitumor compounds against MX-1 human breast carcinoma xenograft (Example 25)", "conditions": "for Maximum Weight Loss (Day) / Partial Response / Stable Disease / Toxic Deaths / Mean Day of Survival (n): 6 mice/group; for Maximum Weight Loss (Day): on Day 5; for Partial Response / Stable Disease / Toxic Deaths / Mean Day of Survival (n): study end Day 63; for Mean Day of Survival (n): days until tumor reached 1.5 g; for survival compared to vehicle control mice: MX-1, single oral bolus, doses of Table 22, Day 63; for Complete Response: po, 1512 h", "description": "This study investigated the efficacy of various antitumor compounds when administered orally against the MX-1 human breast carcinoma xenograft.\n(§1) The study was terminated on Day 63."}, "blood cell populations": {"system": "blood cell populations", "assay": "Effect of oral treatment on blood cell populations, body weight and tumor weight in MX-1 bearing mice (Example 25, Table 23)", "format": "in vivo, nu/nu mice", "conditions": "for Weight: tumor weight at Day 18", "method": "as §1\nIn addition to survival and tumor regression responses, the effect of treatment on blood cell populations was assessed. The major effect of these antitumor compounds on blood cell populations was a marked reduction in the neutrophil cell number. As well, monocyte depletion correlated fairly well with neutrophil reduction for each antitumor compound. […] There was a correlation between antitumor activity and reduced neutrophil count. In general, toxicity (as determined by neutrophil depletion) and weight loss correlated with efficacy. Importantly, the toxicities observed with the very efficacious antitumor compounds were manageable and reversible; neutrophil count and body weight rebounded from their low points in just a few days. Table 23 summarizes the weight reduction, neutrophil and monocyte measurements on Day 4, with tumor weight reduction calculated at Day 18: Table 23"}, "[2]": {"conditions": "Day 4, 233 mg/kg single oral bolus"}, "[3]": {"conditions": "Day 4, 160 mg/kg single oral bolus"}}, "data": [{"smiles": "CCC(=O)O[C@H]1C[C@H]2OC[C@@]2(OC(C)=O)[C@H]2[C@H](OC(=O)c3ccccc3)[C@]3(O)C[C@H](OC(=O)[C@H](O)[C@@H](NC(=O)OC(C)(C)C)c4ccccc4)C(C)=C([C@@H](O)C(=O)[C@]12C)C3(C)C", "note": "[Compound 1458]", "values": [{"measurement": "IC50", "setting": "HCT116", "value": "< 10", "unit": "nM"}, {"measurement": "Maximum Weight Loss (Day)", "setting": "[1]; 233 mg/kg single oral bolus", "value": "-5.8% (5)"}, {"measurement": "Partial Response", "setting": "[1]; 233 mg/kg single oral bolus", "value": 0}, {"measurement": "Stable Disease", "setting": "[1]; 233 mg/kg single oral bolus", "value": 0}, {"measurement": "Toxic Deaths", "setting": "[1]; 233 mg/kg single oral bolus", "value": 0}, {"measurement": "Mean Day of Survival (n)", "setting": "[1]; 233 mg/kg single oral bolus", "value": "46.0 ± 1.6 (5) days"}, {"measurement": "survival compared to vehicle control mice", "setting": "[1]", "value": "significant survival extensions"}, {"measurement": "Complete Response", "setting": "[1]; 233 mg/kg", "value": 1}, {"measurement": "Monocytes (K/µL)", "setting": "blood cell populations; [2]", "value": 0.057, "unit": "K/µL"}, {"measurement": "Neutrophils (K/µL)", "setting": "blood cell populations; [2]", "value": 0.232, "unit": "K/µL"}, {"measurement": "% Reduction", "setting": "blood cell populations; reduction of monocytes, Day 4, 233 mg/kg single oral bolus", "value": 40.6, "unit": "%"}, {"measurement": "% Reduction", "setting": "blood cell populations; reduction of neutrophils, Day 4, 233 mg/kg single oral bolus", "value": 74.5, "unit": "%"}, {"measurement": "% Reduction", "setting": "blood cell populations; reduction of tumor weight at Day 18, 233 mg/kg single oral bolus", "value": 97.5, "unit": "%"}, {"measurement": "Weight", "setting": "blood cell populations; 233 mg/kg single oral bolus", "value": 21.8, "unit": "mg"}]}, {"smiles": "CCC(=O)OC1CC2OCC2(OC(C)=O)C2C(OC(=O)c3ccccc3)C3(O)CC(OC(=O)C(O)C(NC(=O)c4ccccc4)c4ccco4)C(C)=C(C(O)C(=O)C12C)C3(C)C", "note": "(stereo not shown) [Compound 4017]", "values": [{"measurement": "IC50", "setting": "HCT116", "value": "< 10", "unit": "nM"}, {"measurement": "Maximum Weight Loss (Day)", "setting": "[1]; 160 mg/kg single oral bolus", "value": "-4.3% (5)"}, {"measurement": "Partial Response", "setting": "[1]; 160 mg/kg single oral bolus", "value": 0}, {"measurement": "Stable Disease", "setting": "[1]; 160 mg/kg single oral bolus", "value": 0}, {"measurement": "Toxic Deaths", "setting": "[1]; 160 mg/kg single oral bolus", "value": 1}, {"measurement": "Mean Day of Survival (n)", "setting": "[1]; 160 mg/kg single oral bolus", "value": "39.4 ± 4.6 (5) days"}, {"measurement": "survival compared to vehicle control mice", "setting": "[1]", "value": "significant survival extensions"}, {"measurement": "Complete Response", "setting": "[1]; 160 mg/kg", "value": 0}, {"measurement": "Monocytes (K/µL)", "setting": "blood cell populations; [3]", "value": 0.073, "unit": "K/µL"}, {"measurement": "Neutrophils (K/µL)", "setting": "blood cell populations; [3]", "value": 0.228, "unit": "K/µL"}, {"measurement": "% Reduction", "setting": "blood cell populations; reduction of monocytes, Day 4, 160 mg/kg single oral bolus", "value": 24.0, "unit": "%"}, {"measurement": "% Reduction", "setting": "blood cell populations; reduction of neutrophils, Day 4, 160 mg/kg single oral bolus", "value": 75.0, "unit": "%"}, {"measurement": "% Reduction", "setting": "blood cell populations; reduction of tumor weight at Day 18, 160 mg/kg single oral bolus", "value": 70.5, "unit": "%"}, {"measurement": "Weight", "setting": "blood cell populations; 160 mg/kg single oral bolus", "value": 256.5, "unit": "mg"}]}]}
